Dmax and DC50 data for 15 molecules are collected here from patent US20250114345A1, “COMPOUNDS AND COMPOSITIONS AS CBP/P300 DEGRADERS AND USES THEREOF” (Oncopia Therapeutics, Inc. d/b/a/ SK Life Science Labs, priority 2023, published 2025).

One experiment concerns the target T1, p300 (Homo sapiens, UniProt Q09472).
T1 construct: host or cells: A549 P300 HiBit cells
Description: P300 degradation, HiBit technology in A549 P300 HiBit cells (2 h). The note with it: 2 hrs post treatment; for Dmax: A549, A549 P300 HiBit cells; for DC50: A549 P300 HiBit cells. Type of experiment: cell-based. The method, boiled down: (§1)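 HiBiT knock-in A549 cells received compound in serial dilution at 37 °C under 5% CO2. Remaining tagged protein was quantified by lytic HiBiT luminescence after 10 min shaking at room temperature, yielding potency and maximal degradation.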
Background: With HiBiT, luminescence reflects the tagged protein that the partner subunit can reach.

The target in the next experiment is T2, CBP (Homo sapiens, UniProt Q92793).
T2 construct: host or cells: A549 CBP HiBit cells
Description: CBP degradation, HiBit technology in A549 CBP HiBit cells (24 h). It counts as cell-based. The note with it: 24 hrs post treatment. In short, it runs like this:
as §1

Where only a bound is given, the exact number is not on record here.

T1 sequence (Q09472 whole entry): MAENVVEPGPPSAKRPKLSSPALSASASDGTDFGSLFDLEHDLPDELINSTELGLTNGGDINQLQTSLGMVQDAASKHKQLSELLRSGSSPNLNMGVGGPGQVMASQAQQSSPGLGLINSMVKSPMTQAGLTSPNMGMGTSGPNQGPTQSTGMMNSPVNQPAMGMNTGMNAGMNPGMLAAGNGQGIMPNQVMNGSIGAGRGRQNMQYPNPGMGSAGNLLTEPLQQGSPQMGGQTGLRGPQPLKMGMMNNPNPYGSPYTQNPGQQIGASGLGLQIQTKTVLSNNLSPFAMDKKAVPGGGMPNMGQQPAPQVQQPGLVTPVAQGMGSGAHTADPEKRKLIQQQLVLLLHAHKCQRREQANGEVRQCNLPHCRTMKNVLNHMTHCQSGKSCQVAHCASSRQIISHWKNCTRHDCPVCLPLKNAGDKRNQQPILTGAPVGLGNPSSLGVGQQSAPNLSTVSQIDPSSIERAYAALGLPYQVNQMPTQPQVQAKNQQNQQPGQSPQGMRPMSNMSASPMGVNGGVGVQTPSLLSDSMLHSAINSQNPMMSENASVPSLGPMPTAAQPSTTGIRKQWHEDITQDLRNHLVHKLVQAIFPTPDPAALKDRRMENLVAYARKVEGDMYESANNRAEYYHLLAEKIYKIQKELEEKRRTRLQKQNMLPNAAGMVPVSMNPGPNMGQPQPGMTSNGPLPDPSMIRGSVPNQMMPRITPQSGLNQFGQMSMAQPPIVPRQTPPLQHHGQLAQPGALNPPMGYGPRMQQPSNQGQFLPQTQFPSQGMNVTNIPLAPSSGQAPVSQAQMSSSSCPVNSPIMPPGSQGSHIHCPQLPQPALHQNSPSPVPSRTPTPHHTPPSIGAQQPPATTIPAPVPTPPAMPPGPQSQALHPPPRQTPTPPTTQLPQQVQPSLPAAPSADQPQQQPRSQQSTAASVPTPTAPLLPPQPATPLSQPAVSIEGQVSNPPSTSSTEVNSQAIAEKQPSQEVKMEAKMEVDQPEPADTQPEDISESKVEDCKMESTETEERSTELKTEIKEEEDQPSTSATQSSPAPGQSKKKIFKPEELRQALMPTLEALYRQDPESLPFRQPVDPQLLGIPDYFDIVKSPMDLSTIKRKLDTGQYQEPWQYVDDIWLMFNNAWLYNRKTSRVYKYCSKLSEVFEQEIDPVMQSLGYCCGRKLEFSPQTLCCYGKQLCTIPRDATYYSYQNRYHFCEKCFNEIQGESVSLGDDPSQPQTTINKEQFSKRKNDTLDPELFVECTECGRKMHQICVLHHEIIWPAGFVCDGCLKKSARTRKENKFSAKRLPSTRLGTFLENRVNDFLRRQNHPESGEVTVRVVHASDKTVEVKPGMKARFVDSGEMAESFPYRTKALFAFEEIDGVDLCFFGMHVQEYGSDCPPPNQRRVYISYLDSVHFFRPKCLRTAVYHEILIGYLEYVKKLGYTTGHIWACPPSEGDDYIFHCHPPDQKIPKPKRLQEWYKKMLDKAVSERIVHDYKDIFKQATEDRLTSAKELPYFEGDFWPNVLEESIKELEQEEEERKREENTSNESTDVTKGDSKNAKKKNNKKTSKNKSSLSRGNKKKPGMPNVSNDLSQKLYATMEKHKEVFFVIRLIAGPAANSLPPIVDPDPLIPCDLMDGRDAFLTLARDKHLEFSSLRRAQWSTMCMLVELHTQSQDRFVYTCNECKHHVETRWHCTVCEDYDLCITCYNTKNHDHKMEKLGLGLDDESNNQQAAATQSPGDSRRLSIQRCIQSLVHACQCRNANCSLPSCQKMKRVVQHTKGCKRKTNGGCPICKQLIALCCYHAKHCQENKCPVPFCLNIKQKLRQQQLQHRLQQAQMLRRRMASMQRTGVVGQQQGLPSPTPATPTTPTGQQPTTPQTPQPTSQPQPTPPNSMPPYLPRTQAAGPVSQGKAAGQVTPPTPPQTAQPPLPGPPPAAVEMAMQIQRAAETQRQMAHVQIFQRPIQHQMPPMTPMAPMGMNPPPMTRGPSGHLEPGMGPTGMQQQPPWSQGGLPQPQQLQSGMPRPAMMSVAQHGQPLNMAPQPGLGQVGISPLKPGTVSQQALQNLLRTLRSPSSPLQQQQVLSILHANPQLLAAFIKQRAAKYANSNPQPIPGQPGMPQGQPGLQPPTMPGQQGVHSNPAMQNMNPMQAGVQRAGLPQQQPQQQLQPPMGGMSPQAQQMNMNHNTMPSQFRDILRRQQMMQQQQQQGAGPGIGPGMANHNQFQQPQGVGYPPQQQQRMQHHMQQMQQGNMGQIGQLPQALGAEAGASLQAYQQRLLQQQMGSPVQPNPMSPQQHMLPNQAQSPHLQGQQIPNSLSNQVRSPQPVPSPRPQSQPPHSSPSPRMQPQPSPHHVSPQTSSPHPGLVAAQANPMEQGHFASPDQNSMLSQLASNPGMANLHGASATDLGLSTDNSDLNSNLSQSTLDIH
T2 sequence (Q92793 whole entry): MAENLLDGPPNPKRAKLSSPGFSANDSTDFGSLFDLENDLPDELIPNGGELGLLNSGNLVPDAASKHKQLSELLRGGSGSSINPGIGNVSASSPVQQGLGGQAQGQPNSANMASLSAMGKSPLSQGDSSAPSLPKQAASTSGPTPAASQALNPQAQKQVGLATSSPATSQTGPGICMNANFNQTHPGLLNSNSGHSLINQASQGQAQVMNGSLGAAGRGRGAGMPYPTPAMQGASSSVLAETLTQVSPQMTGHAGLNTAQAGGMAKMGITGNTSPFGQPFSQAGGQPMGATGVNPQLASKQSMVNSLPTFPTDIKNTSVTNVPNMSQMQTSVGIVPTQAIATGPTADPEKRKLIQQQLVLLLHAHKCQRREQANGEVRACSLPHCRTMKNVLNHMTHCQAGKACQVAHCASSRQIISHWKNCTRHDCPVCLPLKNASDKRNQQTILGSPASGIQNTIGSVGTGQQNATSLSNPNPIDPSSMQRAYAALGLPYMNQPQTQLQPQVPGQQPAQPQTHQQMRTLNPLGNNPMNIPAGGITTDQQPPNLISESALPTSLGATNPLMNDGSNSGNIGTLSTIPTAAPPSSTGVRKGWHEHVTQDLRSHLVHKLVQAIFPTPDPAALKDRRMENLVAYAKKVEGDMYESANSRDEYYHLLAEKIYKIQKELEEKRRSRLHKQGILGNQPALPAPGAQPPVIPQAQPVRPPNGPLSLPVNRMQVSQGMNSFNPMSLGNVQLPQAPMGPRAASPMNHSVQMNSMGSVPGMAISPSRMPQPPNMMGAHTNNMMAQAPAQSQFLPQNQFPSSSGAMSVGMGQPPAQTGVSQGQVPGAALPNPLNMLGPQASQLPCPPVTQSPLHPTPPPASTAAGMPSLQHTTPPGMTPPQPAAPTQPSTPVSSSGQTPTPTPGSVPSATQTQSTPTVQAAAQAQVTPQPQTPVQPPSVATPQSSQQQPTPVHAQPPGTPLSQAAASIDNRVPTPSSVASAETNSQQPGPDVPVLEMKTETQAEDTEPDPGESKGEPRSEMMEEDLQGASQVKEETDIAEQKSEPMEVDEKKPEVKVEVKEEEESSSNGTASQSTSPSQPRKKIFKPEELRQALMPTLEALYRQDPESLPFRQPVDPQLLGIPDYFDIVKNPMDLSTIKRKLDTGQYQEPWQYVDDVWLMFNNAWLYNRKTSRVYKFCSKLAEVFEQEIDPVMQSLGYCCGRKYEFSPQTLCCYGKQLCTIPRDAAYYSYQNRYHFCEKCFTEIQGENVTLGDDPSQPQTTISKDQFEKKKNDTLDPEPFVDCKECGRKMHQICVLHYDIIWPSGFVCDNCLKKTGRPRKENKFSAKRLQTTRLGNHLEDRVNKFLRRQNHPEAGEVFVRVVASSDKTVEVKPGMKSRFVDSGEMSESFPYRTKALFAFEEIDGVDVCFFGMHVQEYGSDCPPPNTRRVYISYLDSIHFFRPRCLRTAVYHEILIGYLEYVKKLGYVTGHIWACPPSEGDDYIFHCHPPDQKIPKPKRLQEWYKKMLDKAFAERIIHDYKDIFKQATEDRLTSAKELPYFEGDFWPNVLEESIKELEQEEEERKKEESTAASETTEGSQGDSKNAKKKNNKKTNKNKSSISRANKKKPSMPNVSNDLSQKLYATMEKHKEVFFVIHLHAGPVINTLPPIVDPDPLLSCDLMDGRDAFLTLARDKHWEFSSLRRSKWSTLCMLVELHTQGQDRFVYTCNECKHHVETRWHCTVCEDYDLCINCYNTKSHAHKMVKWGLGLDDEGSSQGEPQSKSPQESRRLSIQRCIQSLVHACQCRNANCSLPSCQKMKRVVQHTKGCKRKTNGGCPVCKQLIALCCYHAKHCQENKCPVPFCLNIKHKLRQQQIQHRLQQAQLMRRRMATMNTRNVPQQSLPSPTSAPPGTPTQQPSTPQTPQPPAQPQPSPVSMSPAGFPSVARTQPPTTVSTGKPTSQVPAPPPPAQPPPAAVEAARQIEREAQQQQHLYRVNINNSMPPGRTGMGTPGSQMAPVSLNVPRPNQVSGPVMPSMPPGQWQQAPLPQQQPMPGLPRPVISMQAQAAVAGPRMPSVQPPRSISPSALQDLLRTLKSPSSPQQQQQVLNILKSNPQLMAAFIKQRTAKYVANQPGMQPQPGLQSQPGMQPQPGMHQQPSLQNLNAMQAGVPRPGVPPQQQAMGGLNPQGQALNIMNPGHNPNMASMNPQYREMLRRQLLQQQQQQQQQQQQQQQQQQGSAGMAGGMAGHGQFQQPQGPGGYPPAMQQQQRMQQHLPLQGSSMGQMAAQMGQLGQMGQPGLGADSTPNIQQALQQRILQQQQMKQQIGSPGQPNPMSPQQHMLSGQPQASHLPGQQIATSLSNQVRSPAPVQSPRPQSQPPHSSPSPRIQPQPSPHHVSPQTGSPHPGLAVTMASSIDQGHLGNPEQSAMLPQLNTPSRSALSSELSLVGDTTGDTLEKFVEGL

One may read the Dmax as the largest share of the target that was removed. A higher Dmax goes with deep degradation. In general, DC50 refers to the concentration at which degradation of the target reaches its halfway point. A low value points to degradation at low concentration. On p300, `Cc1cc2c(N3CCCc4nc(-c5ccc(C(=O)NCC#Cc6ccc7occ(C8CCC(=O)NC8=O)c7c6)nc5)ncc43)nc(N3CC4CCC(C3)O4)cc2n(C)c1=O` (stereo not drawn) [Example B115, 5-(5-(7-(8-oxa-3-azabicyclo[3.2.1]octan-3-yl)-1,3-dimethyl-2-oxo-1,2-dihydro-1,6-naphthyridin-5-yl)-5,6,7,8-tetrahydropyrido [3,2-d]pyrimidin-2-yl)-N-(3-(3-(2,6-dioxopiperidin-3-yl)benzofuran-5-yl)prop-2-yn-1-yl)picolinamide] gave a Dmax of 60 to 79% and a DC50 of 1 to 9.9 nM. Moreover, on CBP, the DC50 was above 1000 nM and the Dmax is below 20%.

On to `[2H]C([2H])(C#Cc1ccc2occ(C3CCC(=O)NC3=O)c2c1)NC(=O)c1ccc(-c2ncc3c(n2)CCCN3c2cc(C3CCOCC3)cc3c2cc(C)c(=O)n3C)cn1` (stereo not drawn) [Example B117, 5-(5-(1,3-dimethyl-2-oxo-7-(tetrahydro-2H-pyran-4-yl)-1,2-dihydroquinolin-5-yl)-5,6,7,8-tetrahydropyrido[3,2-d]pyrimidin-2-yl)-N-(3-(3-(2,6-dioxopiperidin-3-yl)benzofuran-5-yl)prop-2-yn-1-yl-1,1-d2)picolinamide], for which the Dmax on p300 was above 80%; at CBP it was below 20%. Also, the figures for the 50% degradation concentration (DC50) on p300 and at CBP were 1 to 9.9 nM and 100 to 999 nM, respectively.

At p300, `Cc1cc2c(N3CCCc4nc(-c5ccc(C(=O)NCC#Cc6ccc7occ(C8CCC(=O)NC8=O)c7c6)nc5)ncc43)cc(Cl)cc2n(C)c1=O` (stereo not drawn) [Example B119, 5-(5-(7-chloro-1,3-dimethyl-2-oxo-1,2-dihydroquinolin-5-yl)-5,6,7,8-tetrahydro[3,2-d]pyrimidin-2-yl)-N-(3-(3-(2,6-dioxopiperidin-3-yl)benzofuran-5-yl)prop-2-yn-1-yl) picolinamide] showed a Dmax of 60 to 79% and a DC50 of 1 to 9.9 nM. At CBP, the half-maximal degradation concentration (DC50) was above 1000 nM and the greatest degradation seen (Dmax) is below 20%.

On p300, `Cc1cc2c(N3CCOc4cc(-c5ccc(C(=O)NCC#Cc6ccc7occ(C8CCC(=O)NC8=O)c7c6)nc5)ncc43)cc(F)cc2n(C)c1=O` (stereo not drawn) [Example B123, N-(3-(3-(2,6-dioxopiperidin-3-yl)benzofuran-5-yl)prop-2-yn-1-yl)-5-(4-(7-fluoro-1,3-dimethyl-2-oxo-1,2-dihydroquinolin-5-yl)-3,4-dihydro-2H-pyrido[4,3-b][1,4]oxazin-7-yl)picolinamide] gave a Dmax above 80% and a 50% degradation concentration (DC50) of 1 to 9.9 nM. Further, at CBP, the half-maximal degradation concentration (DC50) is above 1000 nM and the Dmax is below 20%.

For the molecule `Cc1cc2c(N3CCN(C)c4nc(-c5ccc(C(=O)NCC#Cc6ccc7occ(C8CCC(=O)NC8=O)c7c6)nc5)ncc43)cc(C3CCOCC3)cc2n(C)c1=O` (stereo not drawn) [Example B124, 5-(5-(1,3-dimethyl-2-oxo-7-(tetrahydro-2H-pyran-4-yl)-1,2-dihydroquinolin-5-yl)-8-methyl-5,6,7,8-tetrahydropteridin-2-yl)-N-(3-(3-(2,6-dioxopiperidin-3-yl)benzofuran-5-yl)prop-2-yn-1-yl)picolinamide], at p300, the greatest degradation seen (Dmax) is above 80% and the half-maximal degradation concentration (DC50) is below 1 nM. At CBP, this molecule had a DC50 of 1 to 9.9 nM and a Dmax of 40 to 59%.

`Cc1cc2c(N3CCCc4nc(-c5ccc(C(=O)NCC#Cc6ccc7occ(C8CCC(=O)NC8=O)c7c6)nc5)ccc43)cc(C3CCOCC3)cc2n(C)c1=O` (stereo not drawn) [Example B127, 5-(5-(1,3-dimethyl-2-oxo-7-(tetrahydro-2H-pyran-4-yl)-1,2-dihydroquinolin-5-yl)-5,6,7,8-tetrahydro-1,5-naphthyridin-2-yl)-N-(3-(3-(2,6-dioxopiperidin-3-yl)benzofuran-5-yl)prop-2-yn-1-yl)picolinamide]: the greatest degradation seen (Dmax) at p300 was above 80%; at CBP it was below 20%. Moreover, the half-maximal degradation concentration (DC50) at p300 is 1 to 9.9 nM; at CBP, above 1000 nM.

For the molecule `Cc1cc2c(-c3cn(C)c(=O)c4cc(-c5ccc(C(=O)NCC#Cc6cc7c(C8CCC(=O)NC8=O)cccc7o6)nc5)ncc34)nc(N3CCOCC3)cc2n(C)c1=O` (stereo not drawn) [Example B131, 5-(8-(1,3-dimethyl-7-morpholino-2-oxo-1,2-dihydro-1,6-naphthyridin-5-yl)-6-methyl-5-oxo-5,6-dihydro-2,6-naphthyridin-3-yl)-N-(3-(4-(2,6-dioxopiperidin-3-yl)benzofuran-2-yl)prop-2-yn-1-yl)picolinamide], at p300, the greatest degradation seen (Dmax) was above 80% and the half-maximal degradation concentration (DC50) was in the range of 1 to 9.9 nM. At CBP, this molecule came in with a half-maximal degradation concentration (DC50) above 1000 nM and a maximal degradation (Dmax) below 20%.

On p300, `Cc1cc2c(-c3cccc4cc(-c5ccc(C(=O)NCC#Cc6ccc7occ(C8CCC(=O)NC8=O)c7c6)nc5)ncc34)nc(C3CCOCC3)cc2n(C)c1=O` (stereo not drawn) [Example B132, 5-(8-(1,3-dimethyl-2-oxo-7-(tetrahydro-2H-pyran-4-yl)-1,2-dihydro-1,6-naphthyridin-5-yl)isoquinolin-3-yl)-N-(3-(3-(2,6-dioxo-piperidin-3-yl)benzofuran-5-yl)prop-2-yn-1-yl)picolinamide] registered a Dmax above 80% and a DC50 of 1 to 9.9 nM. At CBP, the half-maximal degradation concentration (DC50) was above 1000 nM and the Dmax is below 20%.

On p300, `Cc1cc2c(N3CCCc4nc(-c5ccc(C(=O)NCC#Cc6cc7c(C8CCC(=O)NC8=O)nccc7n6C)nc5)ncc43)cc(C3CCOCC3)cc2n(C)c1=O` (stereo not drawn) [Example B136, 5-(5-(1,3-dimethyl-2-oxo-7-(tetrahydro-2H-pyran-4-yl)-1,2-dihydroquinolin-5-yl)-5,6,7,8-tetrahydropyrido[3,2-d]pyrimidin-2-yl)-N-(3-(4-(2,6-dioxopiperidin-3-yl)-1-methyl-1H-pyrrolo[3,2-c]pyridin-2-yl)prop-2-yn-1-yl) picolinamide] had a Dmax of 60 to 79% and a DC50 of 1 to 9.9 nM. At CBP, the DC50 was above 1000 nM and the Dmax is below 20%.

On p300, `Cc1cc2c(N3CCCc4nc(-c5ccc(C(=O)NCC#Cc6ccc7occ(C8CCC(=O)NC8=O)c7c6)nc5)ncc43)nc(N3CC4(COC4)C3)cc2n(C)c1=O` (stereo not drawn) [Example B137, 5-(5-(1,3-dimethyl-2-oxo-7-(2-oxa-6-azaspiro[3.3]heptan-6-yl)-1,2-dihydro-1,6-naphthyridin-5-yl)-5,6,7,8-tetrahydropyrido [3,2-d]pyrimidin-2-yl)-N-(3-(3-(2,6-dioxo-piperidin-3-yl)benzofuran-5-yl)prop-2-yn-1-yl)picolinamide] came in with a Dmax of 60 to 79% and a DC50 of 1 to 9.9 nM. At CBP, this molecule came in with a half-maximal degradation concentration (DC50) above 1000 nM and a Dmax below 20%.

In the case of `Cc1cc2c(N3CCCc4cc(-c5ccc(C(=O)NCC#Cc6cc7c(C8CCC(=O)NC8=O)cccc7o6)nc5)nnc43)cc(C3CCOCC3)cc2n(C)c1=O` (stereo not drawn) [Example B138, 5-(8-(1,3-dimethyl-2-oxo-7-(tetrahydro-2H-pyran-4-yl)-1,2-dihydroquinolin-5-yl)-5,6,7,8-tetrahydropyrido[2,3-c]pyridazin-3-yl)-N-(3-(4-(2,6-dioxopiperidin-3-yl)benzofuran-2-yl)prop-2-yn-1-yl)picolinamide], at p300, the greatest degradation seen (Dmax) is above 80% and the DC50 is below 1 nM. Also, on CBP, the half-maximal degradation concentration (DC50) fell in the range of 100 to 999 nM and the greatest degradation seen (Dmax) is below 20%.

As to `Cc1cc(-c2ncc3c(n2)CCCN3c2cc(C3CCOCC3)cc3c2cc(C)c(=O)n3C)cnc1C(=O)NCC#Cc1cc2c(C3CCC(=O)NC3=O)cccc2o1` (stereo not drawn) [Example B141, 5-(5-(1,3-dimethyl-2-oxo-7-(tetrahydro-2H-pyran-4-yl)-1,2-dihydroquinolin-5-yl)-5,6,7,8-tetrahydropyrido[3,2-d]pyrimidin-2-yl)-N-(3-(4-(2,6-dioxopiperidin-3-yl)benzofuran-2-yl)prop-2-yn-1-yl)-3-methylpicolinamide], the maximal degradation (Dmax) on p300 is above 80%; on CBP, 20 to 39%. Further, the 50% degradation concentration (DC50) is below 1 nM on p300 and 10 to 99 nM at CBP.

Consider `Cc1cc2c(N3CCCc4nc(-c5ccc(C(=O)NCC#Cc6cc7cccc(C8CCC(=O)NC8=O)c7o6)nc5)ncc43)cc(C3CCOCC3)cc2n(C)c1=O` (stereo not drawn) [Example B148, 5-(5-(1,3-dimethyl-2-oxo-7-(tetrahydro-2H-pyran-4-yl)-1,2-dihydroquinolin-5-yl)-5,6,7,8-tetrahydropyrido[3,2-d]pyrimidin-2-yl)-N-(3-(7-(2,6-dioxopiperidin-3-yl)benzofuran-2-yl)prop-2-yn-1-yl)picolinamide], for which the figures for the maximal degradation (Dmax) on p300 and on CBP were 60 to 79% and below 20%, respectively. Besides, the figures for the 50% degradation concentration (DC50) on p300 and at CBP were 1 to 9.9 nM and above 1000 nM, respectively.

Consider `Cc1cc(-c2ncc3c(n2)CCCN3c2cccc3c2cc(C)c(=O)n3C)cnc1C(=O)NCC#Cc1cc2c(C3CCC(=O)NC3=O)cccc2o1` (stereo not drawn) [Example B153, 5-(5-(1,3-dimethyl-2-oxo-1,2-dihydroquinolin-5-yl)-5,6,7,8-tetrahydropyrido[3,2-d]pyrimidin-2-yl)-N-(3-(4-(2,6-dioxopiperidin-3-yl)benzofuran-2-yl)prop-2-yn-1-yl)-3-methylpicolinamide], for which, on p300, the Dmax is above 80% and the half-maximal degradation concentration (DC50) is below 1 nM. Besides, at CBP, the DC50 is 100 to 999 nM and the Dmax is below 20%.

Consider `Cc1cc2c(N3CCCc4nc(-c5ccc(C(=O)NCC#Cc6ccc7c(c6)c(C6CCC(=O)NC6=O)nn7C)nc5)ncc43)cc(C3CCOCC3)cc2n(C)c1=O` (stereo not drawn) [Example B154, 5-(5-(1,3-dimethyl-2-oxo-7-(tetrahydro-2H-pyran-4-yl)-1,2-dihydroquinolin-5-yl)-5,6,7,8-tetrahydropyrido[3,2-d]pyrimidin-2-yl)-N-(3-(3-(2,6-dioxopiperidin-3-yl)-1-methyl-1H-indazol-5-yl)prop-2-yn-1-yl)picolinamide], for which the Dmax at p300 was above 80%; at CBP it was 60 to 79%. In addition, the 50% degradation concentration (DC50) on p300 and on CBP was 1 to 9.9 nM throughout.
